Reference: US9539270B2, “Methods for providing sialylated oligosaccharides” (priority 2011, dated 2017)

Molecular target: T1, Trypanosoma cruzi trans-sialidase (TcTS) (Trypanosoma cruzi, UniProt Q26966)
T1 construct: 6xHis (N); made in house; host or cells: E. coli TOP10 or BL21(DE3)
Assay: Affinity of TcTS for the sialic acid donor substrates (kinetic incubations with lactose as acceptor)
Assay type: biochemical
Settings: TcTS 4.5 mU/ml; 0.1-10.0 mM 4MU-Neu5Ac as donor; 1 mM lactose as acceptor
Description: In kinetic experiments with partially purified TcTS, 4MU-Neu5Ac or industrially available κ-casein-derived glycomacropeptide (GMP) as donors and lactose as acceptor, the formation of 3′SL was quantitatively determined after 15 and 30 min of incubation, making use of high-pH anion-exchange chromatography with pulsed amperometric detection (HPAEC-PAD). For both donors, the optimal temperature for the transfer reaction, deduced from a series of temperatures ranging from 15-50° C., with increments of 5° C., turned out to be 25° C., which is similar to the optimal temperature reported in literature (Scudder et al., J. Biol. Chem. 268: 9886-9891, 1993).
The affinity of TcTS for the sialic acid donor substrates 4MU-Neu5Ac and GMP was tested by performing incubations (4.5 mU/ml) with an appropriate range of these substrates and a fixed concentration of lactose as acceptor.

T1 sequence (Q26966 entry or part of it): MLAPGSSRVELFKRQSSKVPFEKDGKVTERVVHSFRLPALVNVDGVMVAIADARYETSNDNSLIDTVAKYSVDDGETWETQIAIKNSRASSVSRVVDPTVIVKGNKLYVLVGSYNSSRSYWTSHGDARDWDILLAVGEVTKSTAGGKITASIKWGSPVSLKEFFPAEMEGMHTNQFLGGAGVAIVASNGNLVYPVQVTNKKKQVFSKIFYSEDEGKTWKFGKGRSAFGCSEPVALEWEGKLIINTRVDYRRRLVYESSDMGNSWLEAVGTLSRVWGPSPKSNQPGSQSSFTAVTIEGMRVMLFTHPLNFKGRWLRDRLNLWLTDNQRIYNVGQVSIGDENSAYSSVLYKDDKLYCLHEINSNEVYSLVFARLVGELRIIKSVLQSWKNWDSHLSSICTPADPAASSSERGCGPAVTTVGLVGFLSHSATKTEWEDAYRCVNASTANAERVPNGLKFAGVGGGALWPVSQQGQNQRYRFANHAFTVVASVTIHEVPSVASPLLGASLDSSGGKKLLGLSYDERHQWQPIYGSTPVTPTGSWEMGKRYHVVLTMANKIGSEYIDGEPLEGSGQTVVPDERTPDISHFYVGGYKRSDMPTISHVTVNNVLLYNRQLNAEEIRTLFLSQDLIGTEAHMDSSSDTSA

## CC(=O)N[C@H]1[C@H]([C@H](O)[C@H](O)CO)OC(Oc2ccc3c(C)cc(=O)oc3c2)(C(=O)O)C[C@@H]1O (stereo partly drawn) [4MU-Neu5Ac, 2′-(4-methylumbelliferyl)-α-N-acetylneuraminic acid]
  Km: 1650 µM
  Vmax: 1.5 U/mg
